# From US20100331331A1, “THERAPEUTIC COMPOSITIONS AND THE USE THEREOF” (priority 2007, published 2010)
# Legend:
# [1] = Pharmacokinetic interaction between atazanavir and the Compound: EVG/ATV versus EVG/r crossover in healthy subjects; conditions: for half-life: human, plasma
# Experimental: This study evaluated the safety and steady-state pharmacokinetics of the co-administered Compound and ATV.
# (§1) Healthy subjects received EVG/r 300/100 mg or EVG/ATV 300/400 mg in a randomized, crossover manner for 10 days each, with the last dose being coadministered with the CYP3A probe substrate midazolam (oral syrup; 5 mg) and pharmacokinetic (PK) sampling performed. […] ATV, midazolam, and ritonavir pharmacokinetics were also determined for descriptive statistics.
# [2] = Similar studies of the effect of five protease inhibitors on the pharmacokinetics of the Compound; assay type: in vivo; conditions: protease inhibitors with ritonavir 100 mg QD to 200 mg BID
# Experimental: These studies employed various doses of ritonavir (100 mg QD to 200 mg BID).
# CYP3A = CYP3A probe substrate midazolam pharmacokinetics with EVG/ATV versus EVG/r; conditions: midazolam oral syrup 5 mg with last dose; EVG/ATV vs. EVG/r
# Experimental: as §1
# [3] = Pharmacokinetic interaction between atazanavir/r and the Compound, steady-state PK in healthy subjects (studies 1 and 2); assay type: in vivo, human; conditions: for AUCtau % GMR (90% CI) / Cmax % GMR (90% CI) / Ctau % GMR (90% CI): coadministration:alone, 14 days
# Source text: In study 1, 33/61 and study 2, 19/30 subjects completed each study; discontinuations were mostly for known ATV adverse events.
# [4] = ATV 400 mg coadministered with EVG 300 mg
# [5] = EVG/ATV 300/400 mg vs. EVG/r 300/100 mg, 10 days each, n=14
# [6] = Study 1, the Compound 200 mg (test and reference) + ATV/r 300/100 mg QD, n=33
# [7] = Study 2, the Compound test 85 mg, reference 150 mg, ATV/r 300/100 mg QD, n=20
compound,measurement,setting,value
"COC(=O)N[C@H](C(=O)N[C@@H](Cc1ccccc1)[C@@H](O)CN(Cc1ccc(-c2ccccn2)cc1)NC(=O)[C@@H](NC(=O)OC)C(C)(C)C)C(C)(C)C [ATV, 1-[4-(pyridine-2-yl)-phenyl]-4(S)-2,5-bis-[N-(N-methoxycarbonyl-(L)-tert-leucyl)amino]-6-phenyl-2-axahexane, reference compound]",AUCtau and Ctau compared with historical data,[1]; [4],lower than historical data
same,Mean (% CV) Ctau,[1]; [4],74.5 (45.7%) ng/ml
same,effect on the pharmacokinetics of the Compound,[2],improved pharmacokinetic effect
Cc1ncc2n1-c1ccc(Cl)cc1C(c1ccccc1F)=NC2 [midazolam],AUCinf geometric mean ratio (90% CI),CYP3A,"89.5 (80.7, 99.3) %"
same,Cmax geometric mean ratio (90% CI),CYP3A,"98.8 (89.6, 109) %"
"COc1cc2c(cc1Cc1cccc(Cl)c1F)c(=O)c(C(=O)O)cn2[C@H](CO)C(C)C [the Compound, 6-(3-chloro-2-fluorobenzyl)-1-[(2S)-1-hydroxy-3-methylbutan-2-yl]-7-methoxy-4-oxo-1,4-dihydroquinoline-3-carboxylic acid]",systemic exposure,[1]; 300 mg of the Compound with atazanavir versus 300 mg with ritonavir,equivalent
same,AUCtau geometric mean ratio (90% CI),[1]; [5],"107 (95.6, 119) %"
same,Cmax geometric mean ratio (90% CI),[1]; [5],"108 (99, 119) %"
same,Ctau geometric mean ratio (90% CI),[1]; [5],"89.9 (71.4, 113) %"
same,adverse events,"[1]; EVG/r 300/100 mg or EVG/ATV 300/400 mg, 10 days each, healthy subjects",No grade 4 AE or serious AE were observed
same,half-life,"[1]; median T1/2, EVG/ATV 300/400 mg",5.2 h
same,half-life,"[1]; median T1/2, EVG/r 300/100 mg",6.3 h
same,systemic exposure,[3]; 85 mg of the Compound with ritonavir-boosted atazanavir versus 150 mg dose of the Compound alone,equivalent
same,AUCtau % GMR (90% CI),[3]; [6],200%
same,Cmax % GMR (90% CI),[3]; [6],185%
same,Ctau % GMR (90% CI),[3]; [6],288%
same,AUCtau % GMR (90% CI),[3]; [7],107%
same,Cmax % GMR (90% CI),[3]; [7],90.9%
same,Ctau % GMR (90% CI),[3]; [7],138%
same,exposures upon coadministration with ATV/r,[3]; coadministration with ATV/r,elevated
